{"source": "patent US8906828B2", "about": "“Compositions and methods for post emergent weed control with clethodim and gibberellic acid” (Valent U.S.A. Corporation, priority 2012, dated 2014)", "key": {"[1]": {"test_system": "Glyphosate resistant corn", "assay": "Clethodim and GA3 treatments on planted glyphosate resistant corn, % control (Example 2)", "assay_type": "in vivo", "method": "A further study was performed in order to confirm the effect clethodim and GA3 treatments have on corn. Glyphosate resistant corn was planted with a conventional four-row planter. Treatments were applied 28 days after the plantings.\nThe percent corn control was evaluated at […] days following the treatments. Effect of Clethodim and GA3 Treatments on corn (% control)."}, "Johnsongrass": {"test_system": "Johnsongrass", "assay": "Post emergent treatment of plots with abundant Johnsongrass growth, % control (Example 1)", "assay_type": "in vivo, Sorghum halepense", "method": "In order to determine the efficacy of combinations of clethodim and GA3, numerous treatments were applied to plots in an area with abundant Johnsongrass growth.\nThe percent control of Johnsongrass plants was evaluated at 7, 18 and 28 days following the treatment. Effect of Clethodim and GA3 Treatments on Johnsongrass (% control).”\nThe percent control refers to the amount of dead tissue on the plants present. It would be dead plants plus desiccated foliage on partially killed plants."}}, "data": [{"smiles": "CCSC(C)CC1CC(=O)C(C(CC)=NOC/C=C/Cl)=C(O)C1", "note": "(centres unmarked) [Clethodim, 2-[1-[[[(2E)-3-chloro-2-propen-1-yl]oxy]imino]propyl]-5-[2-(ethylthio)propyl]-3-hydroxy-2-cyclohexen-1-one]", "values": [{"measurement": "Corn % control 6 DAT", "setting": "[1]; Clethodim 32 gm ai/a, 0.25% v/v non-ionic surfactant and 2.5 lb/acre ammonium sulfate, 6 DAT", "result": 48.33, "unit": "%"}, {"measurement": "Corn % control 13 DAT", "setting": "[1]; Clethodim 32 gm ai/a, 0.25% v/v non-ionic surfactant and 2.5 lb/acre ammonium sulfate, 13 DAT", "result": 88.33, "unit": "%"}, {"measurement": "Corn % control 29 DAT", "setting": "[1]; Clethodim 32 gm ai/a, 0.25% v/v non-ionic surfactant and 2.5 lb/acre ammonium sulfate, 29 DAT", "result": 96.00, "unit": "%"}, {"measurement": "Johnsongrass % control 7 DAT", "setting": "Johnsongrass; Clethodim 32 x g ai/a (9 fl oz/a of Selectmax), 0.25% v/v non-ionic surfactant and 2.5 lb/acre AMS, 7 DAT", "result": 37.21, "unit": "%"}, {"measurement": "Johnsongrass % control 18 DAT", "setting": "Johnsongrass; Clethodim 32 x g ai/a (9 fl oz/a of Selectmax), 0.25% v/v non-ionic surfactant and 2.5 lb/acre AMS, 18 DAT", "result": 85.66, "unit": "%"}, {"measurement": "Johnsongrass % control 28 DAT", "setting": "Johnsongrass; Clethodim 32 x g ai/a (9 fl oz/a of Selectmax), 0.25% v/v non-ionic surfactant and 2.5 lb/acre AMS, 28 DAT", "result": 89.26, "unit": "%"}]}, {"smiles": "C=C1C[C@]23C[C@@]1(O)CC[C@H]2[C@@]12C=C[C@H](O)[C@@](C)(C(=O)O1)[C@H]2[C@@H]3C(=O)O", "note": "[GA3, Gibberellic acid]", "values": [{"measurement": "Effect of GA3 on the activity of clethodim on corn", "setting": "[1]; presence of GA3", "result": "significantly increased"}, {"measurement": "Effect of GA3 on the activity of clethodim on Johnsongrass", "setting": "Johnsongrass; seven days following treatment, versus clethodim alone", "result": "more than doubles"}]}]}
